Results from US7615380B2, “Methods for modulating an immune response by modulating KRC activity” (President and Fellows of Harvard College, priority 2001, dated 2009).

How the values were obtained:
NIH 3T3 cells = assay: β-galactosidase cotransfection apoptosis assay in 3T3 cells; type: cell-based; conditions: TNFα 20 ng/ml
Description: 3T3 cells were cotransfected with CMV lacZ vector (300 ng per plate) and either empty expression vector or the expression vectors indicated (2 μg of each). Half of the transfected cultured cells were treated with TNFα (20 ng/ml) at 12 hours after the transfection and the other half left untreated. All the cells were fixed and stained at 36 hours after the transfection. The number of blue cells in each transfection was determined by counting six different fields. A representative experiment of three performed is presented.
β-galactosidase cotransfection assays for determination of cell death were performed as described (Hsu, et al.). Transfected NIH 3T3 cells were washed with PBS, fixed in PBS containing 3% paraformaldehyde for 10 min at 4° C., and washed with PBS. Fixed cells were stained overnight with XGal. The number of blue-stained cells was determined microscopically. The average number from one representative experiment of three is shown.

CD69 = CD69 expression by FACS in transfected Jurkat T cells; type: cell-based, human
Description: KRC was transfected into Jurkat T cells and CD69 expression was measured by FACS analysis.

MAPK (ERK, p38, JNK) = assay: MAPK activity in Jurkat cells (PathDetect reporter, immunoprecipitation-kinase assay); type: cell-based, human
Description: FIG. 20(A) Jurkat cells were transiently transfected with AP-1 Luciferase reporter along with KRC and RasN17 DN vectors. 24 hours later cells were pretreated with Rottlerin (10 μM) and stimulated for 6 hours with PMA plus ionomycin. Luciferase activity was measured as above. FIG. 20(B) Jurkat cells were transfected with a GAL4 Luciferase reporter along with a GAL4 DNA binding domain, GAL4-ATF2, or GAL4-ELK1 with or without KRC. 24 hours later, cells were stimulated with PMA plus ionomycin and analyzed for Luciferase activity as above. FIG. 20(C) Jurkat cells were transiently transfected with FLAG-JNK2, and either Vector, KRC, or MKK7. 48 hours later, cells were stimulated with PMA plus ionomycin for 6 hours and JNK activity was determined by immunoprecipitation/kinase assay. […]
KRC may enhance AP-1 function indirectly through the modulation of MAPK activity, kinases downstream of Ras that are known to potently stimulate AP-1 function (Binetruy, B., et al. (1991) Nature 351:122-127; Deng, T., and M. Karin (1994) Nature 371:171-175; Murphy, L., et al. (2002) Nat. Cell Biol. 4: 556-564). […] Co-expression of KRC with HA-ERK1, myc-ERK2, Flag-P38 and Flag-JNK2 was performed and the activity of each kinase was measured using an immunoprecipitation-kinase assay with specific substrates, GST-Elk1, GST-ATF2 and GST-Jun for each MAPK. […]

AP-1 = AP-1 luciferase/GFP reporter in 293T cells; type: cell-based, human
Description: FIG. 21(A) 293T cells were transfected with c-Jun and myc-KRCtr. 48 hours later, lysates were immunoprecipitated with anti-Myc antibody. Immunoprecipitates were probed by western blotting with anti-c-Jun antibody. FIG. 21(B) (left panel) 293T cells were cotransfected with c-Jun and full length His-KRC. 48 hours later, lysates were immunoprecipitated with anti-His antibody (DE8 Omniprobe) and precipitates were probed by western blotting with anti-c-Jun antibody. (right panel) In vitro translated and S35-labelled c-Jun and His-KRCtr were mixed and immunoprecipitated with anti-His antibody. Recovered c-Jun protein was visualized by autoradiography. FIG. 21(C) Jurkat or EL4 T cells were stimulated with PMA plus ionomycin for 45 minutes. Lysates were immunoprecipitated with anti-c-Jun antibody, and immunoprecipitates were probed with specific anti-KRC rabbit antisera. […] 24 hours later, Luciferase activity was determined as above. […] 24 hours later, luciferase activity was determined as above. […]
To examine the functional consequences of AP-1 degradation by KRC, cotransfection experiments in 293T cells with sense or antisense KRC together with a luciferase-tagged AP-1 reporter construct were performed. […] Conversely, cotransfection of antisense KRC increased AP-1 transactivation as evidenced by an increased number of GFP+ cells as well as an increase in the intensity of fluorescence per cell in. […]

F-actin = F-actin immunofluorescence in Jurkat T cells; type: cell-based, human
Description: Immunofluorescence of F-actin upon KRC overexpression in Jurkat T cells was performed.

## KRC: full-length KRC zinc finger protein (SEQ ID NO:2) overexpressed from an expression vector
NIH 3T3 cells
  TNFα-induced apoptosis (TNF mediated cytotoxicity): increase in TNF mediated cytotoxicity
CD69
  CD69 expression: increases expression of CD69
MAPK (ERK, p38, JNK); ERK1, ERK2, P38, JNK2
  MAPK activity, immunoprecipitation-kinase assay: no detectable effect on any of the MAPKs
MAPK (ERK, p38, JNK); Jurkat cells
  MAPK / p38 activity, PathDetect reporter (ELK-1, ATF2): unable to modulate either MAPK or p38 activity
AP-1; AP-1 luciferase reporter
  c-Jun and c-Jun plus c-Fos AP-1 activity enhancement: approximately 5 fold
AP-1; sense or antisense KRC cotransfection
  AP-1 activity (luciferase-tagged AP-1 reporter): decreased stimulation of AP-1 activity
F-actin
  actin polymerization (F-actin): reorganization of F-actin filaments
